“And” between values parts separate entries of the source, which are not always exact repeats. Equal entries are not always repeated. Where two headings read alike, the source gives them in different places.

Assay [1] deals with GA-10 (Burkitt's lymphoma) cells. Kind of assay: Anti-proliferation assay (ATPLite, 72 h), GA-10. The note with it: x dexamethasone. Format: cell-based.
In assay [2] the test system is MM.1S cells. Kind of assay: Anti-proliferation assay (ATPLite, 72 h), MM.1S. The note with it: for activity and synergy in antiproliferation assays: RPMI-8226, H929, MM.1S and MM.1R MM cell lines; for IC50: 2-fold dilutions.
The test system of assay [3] is MM.1S cells.
In assay [4] the test system is Farage (non-Hodgkin's B cell lymphoma) cells. The experiment in a line: Anti-proliferation assay (ATPLite, 72 h), Farage. It is filed as cell-based. The following applies: x dexamethasone.
A further assay concerns H929 cells. Kind of assay: Anti-proliferation assay (ATPLite, 72 h), H929. Format: cell-based.
The test system of a further assay is RPMI-8226 cells. The experiment in a line: Anti-proliferation assay (ATPLite, 72 h), RPMI-8226. It is filed as cell-based.
For another assay, the system named is EJM cells. Kind of assay: Anti-proliferation assay (ATPLite, 72 h), EJM. The note with it: in combination with CGS-21680. Format: cell-based.
The subject of a further assay is ANBL-6 cells. Kind of assay: Anti-proliferation assay (ATPLite, 72 h), ANBL-6. Format: cell-based. The following applies: in combination with CGS-21680.
In a further assay the test system is SU-DHL6 DLBCL cells. The experiment in a line: Anti-proliferation assay (ATPLite, 72 h), SU-DHL6. Format: cell-based. The following applies: in combination with CGS-21680.
For another assay, the system named is Karpas 422 DLBCL cells. The experiment in a line: Anti-proliferation assay (ATPLite, 72 h), Karpas 422. Format: cell-based. The following applies: in combination with CGS-21680.
The next assay has as its system OPM2 cells. Kind of assay: Anti-proliferation assay (ATPLite, 72 h), OPM2. Format: cell-based, human.
A further assay has as its system KSM-12-PE cells. Kind of assay: Anti-proliferation assay (ATPLite, 72 h), KSM-12-PE. It is filed as cell-based. The following applies: in combination with CGS-21680; KSM-12-PE.
A further assay has as its system MOLP-8 cells. The experiment in a line: Anti-proliferation assay (ATPLite, 72 h), MOLP-8. Format: cell-based. The note with it: in combination with CGS-21680.
The subject of the next assay is OCI-ly10 DLBCL cells. The experiment in a line: Anti-proliferation assay (ATPLite, 72 h), OCI-ly10. It is filed as cell-based. The note with it: in combination with CGS-21680.
The test system of assay [5] is mantle cell lymphoma cell line Mino. Kind of assay: Anti-proliferation assay (ATPLite, 72 h), Mino. Format: cell-based, human. The protocol: (§1) All of the cell lines were cultured in RPMI-1640 media supplemented with 10% FBS except OCI Ly10 cells (IMDM media supplemented with 20% human serum). The ANBL-6 cell line culture media also contained 10 ng/ml IL-6. MM.1S, MM.1R, SU-DHL6, Karpas 422, and OCI ly10 cells were provided by the Dana Farber Cancer Institute. ANBL-6 cells were provided by Bob Orlowsli (M.D. Anderson Cancer Research Center). H929, RPMI-8226, GA-10, Farage, Mino, JVM-13, Pfeiffer, Toledo, and Kusami-1 cells were from ATCC (Cat #'s CCL-155, CRL-9068, CRL-2392 CRL-2630, CRL-3000, CRL-3003, CRL-2632, CRL-2631, and CRL-2724 respectively). MOLP-8, OPM2, EJM, and KSM-12-PE cells were from DSMZ.
(§2) Compounds were prepared in DMSO at 1000× the highest desired concentration. Master plates were generated consisting of serially diluted compounds in 2- or 3-fold dilutions in 384-well format. For single agent dose response curves, the master plates consisted of 9 individual compounds at 12 concentrations in 2- or 3-fold dilutions. For combination matrices, master plates consisted of individual compounds at 6 or 9 concentrations at 2- or 3-fold dilutions.
(§3) The average untreated well value (avg. untreated wells) is the arithmetic mean of 40 wells from the same assay plate treated with vehicle alone. Negative inhibition values result from local variations in treated wells as compared to untreated wells.
(§4) The uncertainty of each fitted parameter was estimated from the range over which the change in reduced chi-squared was less than one, or less than minimum reduced chi-squared if that minimum exceeded one, to allow for underestimated σI errors.
(§5) Single agent curve data were used to define a dilution series for each compound to, be used for combination screening in a 6×6 matrix format. […] For compounds with no detectable single agent activity, a dilution factor of 4 was used, starting from the highest achievable concentration.
(§6) The Loewe additivity model was used to quantify combination effects. Combinations were ranked initially by Additivity Excess Volume, which is defined as ADD Volume=ΣCX, CY(Idata−ILoewe). where ILoewe(CX,CY) is the inhibition that satisfies (CX/ECX)+(CY/ECY)=1, and ECX,Y are the effective concentrations at ILoewe for the single agent curves. A “Synergy Score” was also used, where the Synergy Score S=log fX log fY ΣIdata (Idata−ILoewe), summed over all non-single-agent concentration pairs, and where log fX,Y is the natural logarithm of the dilution factors used for each single agent.

The test system of assay [6] is mantle cell lymphoma cell line JVM-13. The experiment in a line: Anti-proliferation assay (ATPLite, 72 h), JVM-13. It is filed as cell-based, human. On the procedure:
as §1, §2, §3, §4, §5, §6

Setting [7] is: read-out: IC50 (+IL-6), MM.1S cells grown in presence of 10 ng/ml IL-6.
Where [8] appears, read: read-out: IC50 (no IL-6), MM.1S cells grown in absence of IL-6.

With `OC[C@H]1O[C@H](n2cnc3c(NC4CC5CCC4C5)ncnc32)[C@H](O)[C@@H]1O` (stereo partly drawn) [(S)-ENBA, S-N^6-(2-endo-norbornyl)adenosine], the values for the synergy score in [1] and in [4] were 1.05 and 1.37, respectively. Also, the “Synergy score with dexamethasone, MM.1S” value with MM.1S cells [2] is 7.30. Further, the “percent inhibition of cell proliferation” value in the assay with MM.1S cells [2] ((S)-ENBA 0.173 μM alone) was 14%; with MM.1S cells [2] ((S)-ENBA 0.519 μM alone) it was 14%; in the assay with MM.1S cells [2] ((S)-ENBA 1.56 μM alone) it was 50%; in the assay on MM.1S cells [2] ((S)-ENBA 4.67 μM alone), 49%; in the assay on MM.1S cells [2] ((S)-ENBA 14 μM alone), 62%. Further, the “activity and synergy in antiproliferation assays” value with MM.1S cells [2] is “active and synergistic”. Also, the half-maximal inhibitory concentration (IC50) in the assay with MM.1S cells [2] (setting [7]) was 1530 nM; in the assay with MM.1S cells [2] (setting [8]) it was 2270 nM. Besides, the “Percent inhibition of cell growth by (S)-ENBA” value (shortened to “Percent inhibition … (S)-ENBA”) in the assay with MM.1S cells [3] ((s)-ENBA 0.17 μM, 78 nM SCH58261) is listed as 4.5%; with MM.1S cells [3] ((s)-ENBA 0.17 μM, 175 nM MRS1754) it was 9.3%; in the assay on MM.1S cells [3] ((s)-ENBA 0.17 μM, 178 nM DPCPX) it was 2.4%; in the assay on MM.1S cells [3] ((s)-ENBA 0.17 μM, 183 nM MRS1523), 10%; in the assay on MM.1S cells [3] ((s)-ENBA 0.17 μM, no antagonist), 6%; in the assay on MM.1S cells [3] ((s)-ENBA 0.52 μM, 78 nM SCH58261) it was 6%. For the same molecule, the “Percent inhibition … (S)-ENBA” value in the assay on MM.1S cells [3] ((s)-ENBA 0.52 μM, 175 nM MRS1754) is reported as 10%; with MM.1S cells [3] ((s)-ENBA 0.52 μM, 178 nM DPCPX), 18%; in the assay on MM.1S cells [3] ((s)-ENBA 0.52 μM, 183 nM MRS1523), 14%; in the assay with MM.1S cells [3] ((s)-ENBA 0.52 μM, no antagonist) it was 19%; in the assay on MM.1S cells [3] ((s)-ENBA 1.6 μM, 78 nM SCH58261) it was 14%; in the assay on MM.1S cells [3] ((s)-ENBA 1.6 μM, 175 nM MRS1754), 50%. Besides, the “Percent inhibition … (S)-ENBA” value with MM.1S cells [3] ((s)-ENBA 1.6 μM, 178 nM DPCPX) is listed as 37%; in the assay on MM.1S cells [3] ((s)-ENBA 1.6 μM, 183 nM MRS1523) it was 36%; in the assay with MM.1S cells [3] ((s)-ENBA 1.6 μM, no antagonist) it was 41%; in the assay on MM.1S cells [3] ((s)-ENBA 4.7 μM, 78 nM SCH58261) it was 12%; with MM.1S cells [3] ((s)-ENBA 4.7 μM, 175 nM MRS1754) it was 47%; with MM.1S cells [3] ((s)-ENBA 4.7 μM, 178 nM DPCPX), 77%. Also, the “Percent inhibition … (S)-ENBA” value is given as 52% in the assay with MM.1S cells [3] ((s)-ENBA 4.7 μM, 183 nM MRS1523); 52% in the assay on MM.1S cells [3] ((s)-ENBA 4.7 μM, no antagonist); 45% in the assay on MM.1S cells [3] ((s)-ENBA 14 μM, 78 nM SCH58261); 71% in the assay with MM.1S cells [3] ((s)-ENBA 14 μM, 175 nM MRS1754); 89% with MM.1S cells [3] ((s)-ENBA 14 μM, 178 nM DPCPX); 65% in the assay with MM.1S cells [3] ((s)-ENBA 14 μM, 183 nM MRS1523). Also, the “Percent inhibition … (S)-ENBA” value in the assay on MM.1S cells [3] ((s)-ENBA 14 μM, no antagonist) is recorded as 68%. The “Synergy score with dexamethasone, H929” value with H929 cells is on record as 7.82. For the same molecule, in the assay on RPMI-8226 cells, the “Synergy score with dexamethasone, RPMI-8226” value is 8.64.
Turning to `O=C(Nc1c(Cl)cncc1Cl)c1ccc(OC(F)F)c(OCC2CC2)c1` [roflumilast], the synergy score was determined as 2.54 in the assay on MM.1S cells [2] (in combination with CGS-21680, MM.1S); 1.06 with EJM cells; 3.73 in the assay with ANBL-6 cells; 0.93 in the assay on SU-DHL6 DLBCL cells; 3.38 in the assay on Karpas 422 DLBCL cells; 0.29 with OPM2 cells (in combination with CGS-21680, OPM-8). Also, the synergy score worked out at 0.27 with KSM-12-PE cells, 3.44 in the assay on MOLP-8 cells and 3.32 with OCI-ly10 DLBCL cells.
Take `CCCCC#Cc1nc(N)c2ncn([C@@H]3O[C@H](C(=O)NCC)[C@@H](O)[C@H]3O)c2n1` [HE-NECA, hexynyladenosine-5′-N-ethylcarboxamide]: the synergy score is reported as 1.64 in assay [1] and 3.6 in [4]. Moreover, the “Synergy score with dexamethasone, MM.1S” value with MM.1S cells [2] turned out to be 8.94. The “percent inhibition of cell proliferation” value with MM.1S cells [2] was 46% and 31%; in the assay on MM.1S cells [2] (HE-NECA 0.181 nM alone), −0.91%; in the assay with MM.1S cells [2] (HE-NECA 0.363 nM alone), 9.2%; in the assay with MM.1S cells [2] (HE-NECA 0.725 nM alone), 11%; in the assay on MM.1S cells [2] (HE-NECA 2.9 nM alone), 35%; with MM.1S cells [2] (HE-NECA 5.8 nM alone), 42%. In addition, the “percent inhibition of cell proliferation” value in the assay with MM.1S cells [2] (HE-NECA 23.2 nM alone) was 51%; in assay [5] (HE-NECA 2.5 nM alone), 7.9% and 4.1%; in assay [5] (HE-NECA 5 nM alone) it was 12%; in [5] (HE-NECA 10 nM alone), 10% and 4.7%; in assay [6] (HE-NECA 2.5 nM alone) it was −0.9%; in assay [6] (HE-NECA 5 nM alone) it was −1.5%. Besides, the “percent inhibition of cell proliferation” value is 2.1% in [6] (HE-NECA 10 nM alone); −9.7% in [6] (HE-NECA 20 nM alone); 1% with OPM2 cells (HE-NECA 2.5 nM alone); 2.6% in the assay with OPM2 cells (HE-NECA 5 nM alone); 0.4% with OPM2 cells (HE-NECA 10 nM alone); 4.8% in the assay on OPM2 cells (HE-NECA 20 nM alone). In the assay with MM.1S cells [2], the “activity and synergy in antiproliferation assays” value is “active and synergistic”. The IC50 turned out to be 0.88 nM in the assay on MM.1S cells [2] (setting [7]) and 6.5 nM in the assay with MM.1S cells [2] (setting [8]). In the assay with H929 cells, the “Synergy score with dexamethasone, H929” value is 7.62. For the same molecule, the “Synergy score with dexamethasone, RPMI-8226” value in the assay with RPMI-8226 cells is recorded as 17.7.
As for `Cn1c2ccccc2c2c3c(c4c5ccccc5n(CCC#N)c4c21)CNC3=O` [Go 6976], the synergy score in the assay on SU-DHL6 DLBCL cells was determined as 3.69; with Karpas 422 DLBCL cells it was 2.91; with OCI-ly10 DLBCL cells, 1.61.

These data come from patent US20090053168A1, “TREATMENTS OF B-CELL PROLIFERATIVE DISORDERS” (priority 2007, published 2009).
